Results as given in patent publication US20140213446A1, “HERBICIDAL COMPOSITIONS AND METHODS USING COMBINATIONS OF 4-AMINO-3-CHLORO-6-(4-CHLORO-2-FLUORO-3-METHOXYPHENYL)PYRIDINE-2-CARBOXYLIC ACID OR A DERIVATIVE THEREOF AND AN ARYLOXYPHENOXY PROPIONATE ACCASE INHIBITOR HERBICIDE” (DOW AGROSCIENCES LLC, priority 2013, published 2014).

Tests used:
Assay in all cases: Postemergent herbicidal activity, greenhouse
Format in all cases: in vivo
[1] = system: AVEFA Avena fatua L. (wild oat)
Description: (§1) Evaluation of Postemergent Herbicidal Activity. Seeds or nutlets of the desired test plant species were planted in Sun Gro Metro-Mix® 360 planting mixture, which typically has a pH of 6.0 to 6.8 and an organic matter content of about 30 percent, in plastic pots with a surface area of 64 square centimeters (cm^2). When required to ensure good germination and healthy plants, a fungicide treatment and/or other chemical or physical treatment was applied. The plants were grown for 7-21 days (d) in a greenhouse with an approximate 15 hour (h) photoperiod which was maintained at about 23-29° C. during the day and 22-28° C. during the night. Nutrients and water were added on a regular basis and supplemental lighting was provided with overhead metal halide 1000-Watt lamps as necessary. The plants were employed for testing when they reached the first or second true leaf stage.
(§2) A weighed amount, determined by the highest rate to be tested, of each test compound was placed in a 25 milliliter (mL) glass vial and was dissolved in 4 mL of a 97:3 volume per volume (v/v) mixture of acetone and dimethyl sulfoxide (DMSO) to obtain concentrated stock solutions. […] The concentrated stock solutions obtained were diluted with 20 mL of an aqueous mixture containing acetone, water, isopropyl alcohol, DMSO, Atplus 411F crop oil concentrate, and Triton® X-155 surfactant in a 48.5:39:10:1.5:1.0:0.02 v/v ratio to obtain spray solutions containing the highest application rates. Additional application rates were obtained by serial dilution of 12 mL of the high rate solution into a solution containing 2 mL of a 97:3 v/v mixture of acetone and DMSO and 10 mL of an aqueous mixture containing acetone, water, isopropyl alcohol, DMSO, Atplus 411F crop oil concentrate, and Triton X-155 surfactant in a 48.5:39:10:1.5:1.0:0.02 v/v ratio to obtain ½X, ¼X, ⅛X and 1/16X rates of the high rate. Compound requirements are based upon a 12 mL application volume at a rate of 187 liters per hectare (L/ha). Formulated compounds were applied to the plant material with an overhead Mandel track sprayer equipped with 8002E nozzles calibrated to deliver 187 L/ha over an application area of 0.503 square meters (m^2) at a spray height of 18 inches ([…]) above the average plant canopy height. Control plants were sprayed in the same manner with the solvent blank.
(§3) Treatments consisted of the methyl ester of 4-amino-3-chloro-6-(4-chloro-2-fluoro-3-methoxyphenyl)pyridine-2-carboxylic acid (Cmpd 1) as technical grade material and fluazifop-P-butyl (Fusilade® DX), haloxyfop-P-methyl (GALLANT® super), and quizalofop-P-ethyl (Assure® II) alone and in combination. The form of compound of formula (I) and fluazifop-P-butyl, haloxyfop-P-methyl, and quizalofop-P-ethyl were applied on an acid equivalent basis.
(§4) The treated plants and control plants were placed in a greenhouse as described above and watered by subirrigation to prevent wash-off of the test compounds. After 14 d, the condition of the test plants as compared with that of the untreated plants was determined visually and scored on a scale of 0 to 100 percent where 0 corresponds to no injury and 100 corresponds to complete kill.
(§5) Results of testing mixtures in accordance with this disclosure and of the components of the mixtures separately against various common weeds in greenhouse trials are reported in the following tables. The reported values are of percent (%) control or percent (%) injury, visually rated. Colby's equation was used to determine the herbicidal effects expected from the mixtures (Colby, S. R. Calculation of the synergistic and antagonistic response of herbicide combinations. Weeds 1967, 15, 20-22.).
(§6) More specifically, the following equation was used to calculate the expected activity of mixtures containing two active ingredients, A and B:
(§7) A=observed efficacy of active ingredient A at the same concentration as used in the mixture; B=observed efficacy of active ingredient B at the same concentration as used in the mixture. […]

[2] = system: EPHHL Euphorbia heterophylla L. (wild poinsettia)
Description: as §1, §2, §3, §4, §5, §6, §7

[3] = system: CYPES Cyperus esculentus L. (yellow nutsedge)
Description: as §1, §2, §3, §4, §5, §6, §7

[4] = system: IPOHE Ipomoea hederacea (L.) Jacq. (ivyleaf momingglory)
Description: as §1, §2, §3, §4, §5, §6, §7

[5] = system: HELAN Helianthus annuus L. (common sunflower)
Description: as §1, §2, §3, §4, §5, §6, §7

[6] = system: SETFA Setaria faberi Herrm. (giant foxtail)
Description: as §1, §2, §3, §4, §5, §6, §7

[7] = system: STEME Stellaria media (L.) Vill. (common chickweed)
Description: as §1, §2, §3, §4, §5, §6, §7

[8] = system: ABUTH Abutilon theophrasti Medik. (velvetleaf)
Description: as §1, §2, §3, §4, §5, §6, §7

[9] = system: BRSNW Brassica napus (winter oilseed rape)
Description: as §1, §2, §3, §4, §5, §6, §7

[10] = system: CIRAR Cirsium arvense (L.) Scop. (Canada thistle)
Description: as §1, §2, §3, §4, §5, §6, §7

[11] = system: GLXMA Glycine max (soybean)
Description: as §1, §2, §3, §4, §5, §6, §7

[12] = system: DIGSA Digitaria sanguinalis (L.) Scop. (large crabgrass)
Description: as §1, §2, §3, §4, §5, §6, §7

[13] = system: VIOTR Viola tricolor L. (wild violet)
Description: as §1, §2, §3, §4, §5, §6, §7

[14] = system: AMARE Amaranthus retroflexus L. (redroot pigweed)
Description: as §1, §2, §3, §4, §5, §6, §7

[15] = system: SORVU Sorghum vulgare (common sorghum)
Description: as §1, §2, §3, §4, §5, §6, §7

[16] = system: CHEAL Chenopodium album L. (common lambsquarters)
Description: as §1, §2, §3, §4, §5, §6, §7

CCCCOC(=O)[C@@H](C)Oc1ccc(Oc2ccc(C(F)(F)F)cn2)cc1 [Fluazifop-P, fluazifop-P-butyl]
Visual Growth Reduction (%) 14 DAA Obs ([1]; Fluazifop-P 52.5 g ae/ha): 0%
Visual Growth Reduction (%) 14 DAA Obs ([1]; Fluazifop-P 105 g ae/ha): 0%
Visual Growth Reduction (%) 14 DAA Obs ([1]; Fluazifop-P 210 g ae/ha): 70%
Visual Growth Reduction (%) 14 DAA Obs ([2]; Fluazifop-P 52.5 g ae/ha): 0%
Visual Growth Reduction (%) 14 DAA Obs ([2]; Fluazifop-P 105 g ae/ha): 0%
Visual Growth Reduction (%) 14 DAA Obs ([2]; Fluazifop-P 210 g ae/ha): 0%
Visual Growth Reduction (%) 14 DAA Obs ([3]; Fluazifop-P 52.5 g ae/ha): 0%
Visual Growth Reduction (%) 14 DAA Obs ([3]; Fluazifop-P 105 g ae/ha): 0%
Visual Growth Reduction (%) 14 DAA Obs ([3]; Fluazifop-P 210 g ae/ha): 0%
Visual Growth Reduction (%) 14 DAA Obs ([4]; Fluazifop-P 52.5 g ae/ha): 0%
Visual Growth Reduction (%) 14 DAA Obs ([4]; Fluazifop-P 105 g ae/ha): 0%
Visual Growth Reduction (%) 14 DAA Obs ([4]; Fluazifop-P 210 g ae/ha): 0%
Visual Growth Reduction (%) 14 DAA Obs ([5]; Fluazifop-P 52.5 g ae/ha): 0%
Visual Growth Reduction (%) 14 DAA Obs ([5]; Fluazifop-P 105 g ae/ha): 0%
Visual Growth Reduction (%) 14 DAA Obs ([5]; Fluazifop-P 210 g ae/ha): 0%
Visual Growth Reduction (%) 14 DAA Obs ([6]; Fluazifop-P 52.5 g ae/ha): 80%
Visual Growth Reduction (%) 14 DAA Obs ([6]; Fluazifop-P 105 g ae/ha): 80%
Visual Growth Reduction (%) 14 DAA Obs ([6]; Fluazifop-P 210 g ae/ha): 90%
Visual Growth Reduction (%) 14 DAA Obs ([7]; Fluazifop-P 52.5 g ae/ha): 0%
Visual Growth Reduction (%) 14 DAA Obs ([7]; Fluazifop-P 105 g ae/ha): 0%
Visual Growth Reduction (%) 14 DAA Obs ([7]; Fluazifop-P 210 g ae/ha): 0%
Visual Growth Reduction (%) 14 DAA Obs ([8]; Fluazifop-P 52.5 g ae/ha): 0%
Visual Growth Reduction (%) 14 DAA Obs ([8]; Fluazifop-P 105 g ae/ha): 0%
Visual Growth Reduction (%) 14 DAA Obs ([8]; Fluazifop-P 210 g ae/ha): 0%
Visual Growth Reduction (%) 14 DAA Obs ([9]; Fluazifop-P 52.5 g ae/ha): 0%
Visual Growth Reduction (%) 14 DAA Obs ([9]; Fluazifop-P 105 g ae/ha): 0%
Visual Growth Reduction (%) 14 DAA Obs ([9]; Fluazifop-P 210 g ae/ha): 0%
Visual Growth Reduction (%) 14 DAA Obs ([10]; Fluazifop-P 52.5 g ae/ha): 0%
Visual Growth Reduction (%) 14 DAA Obs ([10]; Fluazifop-P 105 g ae/ha): 0%
Visual Growth Reduction (%) 14 DAA Obs ([10]; Fluazifop-P 210 g ae/ha): 0%
Visual Growth Reduction (%) 14 DAA Obs ([11]; Fluazifop-P 52.5 g ae/ha): 0%
Visual Growth Reduction (%) 14 DAA Obs ([11]; Fluazifop-P 105 g ae/ha): 0%
Visual Growth Reduction (%) 14 DAA Obs ([11]; Fluazifop-P 210 g ae/ha): 0%
Visual Growth Reduction (%) 14 DAA Obs ([12]; Fluazifop-P 52.5 g ae/ha): 70%
Visual Growth Reduction (%) 14 DAA Obs ([12]; Fluazifop-P 105 g ae/ha): 80%
Visual Growth Reduction (%) 14 DAA Obs ([12]; Fluazifop-P 210 g ae/ha): 85%
Visual Growth Reduction (%) 14 DAA Obs ([13]; Fluazifop-P 52.5 g ae/ha): 0%
Visual Growth Reduction (%) 14 DAA Obs ([13]; Fluazifop-P 105 g ae/ha): 0%
Visual Growth Reduction (%) 14 DAA Obs ([13]; Fluazifop-P 210 g ae/ha): 0%
Visual Growth Reduction (%) 14 DAA Obs ([14]; Fluazifop-P 52.5 g ae/ha): 0%
Visual Growth Reduction (%) 14 DAA Obs ([14]; Fluazifop-P 105 g ae/ha): 0%
Visual Growth Reduction (%) 14 DAA Obs ([14]; Fluazifop-P 210 g ae/ha): 0%
Visual Growth Reduction (%) 14 DAA Obs ([15]; Fluazifop-P 52.5 g ae/ha): 70%
Visual Growth Reduction (%) 14 DAA Obs ([15]; Fluazifop-P 105 g ae/ha): 90%
Visual Growth Reduction (%) 14 DAA Obs ([15]; Fluazifop-P 210 g ae/ha): 100%
Visual Growth Reduction (%) 14 DAA Obs ([16]; Fluazifop-P 52.5 g ae/ha): 0%
Visual Growth Reduction (%) 14 DAA Obs ([16]; Fluazifop-P 105 g ae/ha): 0%
Visual Growth Reduction (%) 14 DAA Obs ([16]; Fluazifop-P 210 g ae/ha): 0%
